The data set in a line: Compound 2 and metabolites in rat plasma, 50 mg/kg PO QD×10. The format is in vivo. The following applies: for Average Concentration: rat plasma. The protocol:
The proposed metabolite pathway was determined in vitro, and levels of potential metabolites were measured by LC/MS-MS in rat plasma remaining from the dose rising 10-day repeat dose study in rats. Six potential metabolites were quantified in the low (50 mg/kg) single dose rats. […] Rats were rotated between timepoints to form a composite PK curve. […] A 100 μL aliquot of the supernatant was transferred to the sample plate and mixed with 100 μL of water, then the plate was shaken at 800 rpm for 10 min. 0.5-2 μL supernatant was then injected into a Triple Quad 6500+ for LC-MS/MS analysis. The standard curve was generated at 1-3000 ng/mL for the compounds in rat plasma (EDTA-K2).
The male and female PK parameters were averaged together since there was <2-fold variation between the genders. All values deemed below the level of quantification (BLQ) were excluded from the PK parameters calculations.

Where [1] appears, read: Compound 2 50 mg/kg PO QD×1, 1 h, 50 mg/kg.
Setting [2] is: Compound 2 50 mg/kg PO QD×1, 2 h, 50 mg/kg.
Where [3] appears, read: Compound 2 50 mg/kg PO QD×1, 4 h, 50 mg/kg.
[4] abbreviates: Compound 2 50 mg/kg PO QD×1, 8 h, 50 mg/kg.
The mark [5] stands for this setting: Compound 2 50 mg/kg PO QD×1, 24 h, 50 mg/kg.
The mark [6] stands for this setting: Compound 2 50 mg/kg PO QD×10, 1 h post tenth dose, 50 mg/kg.
[7] abbreviates: Compound 2 50 mg/kg PO QD×10, 2 h post tenth dose, 50 mg/kg.
The mark [8] stands for this setting: Compound 2 50 mg/kg PO QD×10, 4 h post tenth dose, 50 mg/kg.
Setting [9] is: Compound 2 50 mg/kg PO QD×10, 8 h post tenth dose, 50 mg/kg.
Setting [10] is: Compound 2 50 mg/kg PO QD×10, 24 h post tenth dose, 50 mg/kg.
Where [11] appears, read: Compound 2 50 mg/kg PO QD×10, 48 h post tenth dose, 50 mg/kg.
Where [12] appears, read: Compound 2 50 mg/kg PO QD×10, 72 h post tenth dose.
[13] abbreviates: Compound 2 50 mg/kg PO QD×10, 96 h post tenth dose.
Where [14] appears, read: Day 1, of Compound 2 AUC0-24, rat, 50 mg/kg PO.
Setting [15] is: Day 1, rat, Compound 2 50 mg/kg PO.
Setting [16] is: Day 10, of Compound 2 AUC0-last, rat, 50 mg/kg PO QD×10.
The mark [17] stands for this setting: Day 10, rat, Compound 2 50 mg/kg PO QD×10.
The mark [18] stands for this setting: Compound 2 50 mg/kg PO QD×1, 1 h.
The mark [19] stands for this setting: Compound 2 50 mg/kg PO QD×1, 2 h.
Where [20] appears, read: Compound 2 50 mg/kg PO QD×1, 4 h.
Setting [21] is: Compound 2 50 mg/kg PO QD×1, 8 h.
[22] abbreviates: Compound 2 50 mg/kg PO QD×1, 24 h.
The mark [23] stands for this setting: Compound 2 50 mg/kg PO QD×10, 1 h post tenth dose.
The mark [24] stands for this setting: Compound 2 50 mg/kg PO QD×10, 2 h post tenth dose.
Where [25] appears, read: Compound 2 50 mg/kg PO QD×10, 4 h post tenth dose.
Where [26] appears, read: Compound 2 50 mg/kg PO QD×10, 8 h post tenth dose.
Setting [27] is: Compound 2 50 mg/kg PO QD×10, 24 h post tenth dose.
The mark [28] stands for this setting: Compound 2 50 mg/kg PO QD×10, 48 h post tenth dose.
Where [29] appears, read: after single (first) 50 mg/kg PO dose of Compound 2.
Setting [30] is: repeat 10 day administration of Compound 2, 50 mg/kg PO.

Several values for one entry are separate records, joined by “and”; a condition that tells them apart may be missing. Identical values can stand only once.

On to `CCn1c(C#CCNc2ccccc2)cc2cc(CNCc3ccccc3)ccc21` [Compound 4, 1-Anilino-3-[5-(benzylaminomethyl)-1-ethyl-1H-indol-2-yl]-2-propyne], for which the “calculated concentration in rat plasma (individual rats)” value (shortened to “calculated concentration in rat plasma”) is, setting by setting: under setting [1], 52.4 ng/mL and 34.7 ng/mL and 28.5 ng/mL and 58.3 ng/mL and 44.0 ng/mL and 31.4 ng/mL; under setting [2], 98.8 ng/mL and 56.5 ng/mL and 57.4 ng/mL and 65.7 ng/mL and 58.2 ng/mL and 53.3 ng/mL; under setting [3], 72.2 ng/mL and 73.2 ng/mL and 96.5 ng/mL and 63.9 ng/mL and 69.0 ng/mL and 74.3 ng/mL; under setting [4], 86.8 ng/mL and 66.7 ng/mL and 79.4 ng/mL and 71.8 ng/mL and 72.4 ng/mL and 63.5 ng/mL; under setting [5], 17.9 ng/mL and 11.4 ng/mL and 18.4 ng/mL and 24.0 ng/mL and 22.5 ng/mL and 13.1 ng/mL; under setting [6], 48.8 ng/mL and 34.5 ng/mL and 45.1 ng/mL and 46.0 ng/mL and 64.9 ng/mL and 67.1 ng/mL. The “calculated concentration in rat plasma” value is, setting by setting: under setting [7], 42.8 ng/mL and 51.0 ng/mL and 62.7 ng/mL and 54.2 ng/mL and 59.7 ng/mL and 52.9 ng/mL; under setting [8], 66.1 ng/mL and 54.7 ng/mL and 73.4 ng/mL and 93.1 ng/mL and 83.9 ng/mL and 58.7 ng/mL; under setting [9], 53.2 ng/mL and 61.4 ng/mL and 69.2 ng/mL and 67.5 ng/mL and 73.1 ng/mL and 65.4 ng/mL; under setting [10], 17.1 ng/mL and 29.4 ng/mL and 19.7 ng/mL and 38.9 ng/mL and 40.7 ng/mL and 40.1 ng/mL; under setting [11], “BLQ and 1.97 ng/mL and 1.33 ng/mL and 4.63 ng/mL and 2.28 ng/mL and 2.67 ng/mL”; under setting [12], “BLQ”. For the same compound, under setting [13], the “calculated concentration in rat plasma” value is given as “BLQ”. The “% of Parent” value amounted to 1.6% under setting [14] and 1.5% under setting [16]. For the same compound, the AUC0-24 under setting [15] is 1241 ng·h/mL. For the same compound, the AUC0-last under setting [17] worked out at 1620 ng·h/mL. Further, the “Average Concentration” value amounted to 41.55 ng/mL under setting [18]; 64.98 ng/mL under setting [19]; 74.85 ng/mL under setting [20]; 73.43 ng/mL under setting [21]; 17.88 ng/mL under setting [22]; 51.07 ng/mL under setting [23]. The “Average Concentration” value is, setting by setting: under setting [24], 53.88 ng/mL; under setting [25], 71.65 ng/mL; under setting [26], 64.97 ng/mL; under setting [27], 30.98 ng/mL; under setting [28], 2.58 ng/mL; under setting [12], “BLQ”. In addition, under setting [13], the “Average Concentration” value is on record as “BLQ”.
In the case of `CCn1c(C#CCNc2ccc(F)cc2)cc2cc(CNC)ccc21` [Compound 5, 3-{1-Ethyl-5-[(methylamino)methyl]-1H-indol-2-yl}-1-(p-fluorophenylamino)-2-propyne], the “calculated concentration in rat plasma” value reads like this: under setting [1], 576 ng/mL and 407 ng/mL and 342 ng/mL and 649 ng/mL and 486 ng/mL and 311 ng/mL; under setting [2], 1050 ng/mL and 561 ng/mL and 617 ng/mL and 665 ng/mL and 630 ng/mL and 572 ng/mL; under setting [3], 732 ng/mL and 850 ng/mL and 1120 ng/mL and 738 ng/mL and 774 ng/mL and 861 ng/mL; under setting [4], 941 ng/mL and 742 ng/mL and 901 ng/mL and 752 ng/mL and 872 ng/mL and 696 ng/mL; under setting [5], 218 ng/mL and 144 ng/mL and 208 ng/mL and 266 ng/mL and 246 ng/mL and 151 ng/mL; under setting [6], 532 ng/mL and 434 ng/mL and 580 ng/mL and 539 ng/mL and 753 ng/mL and 738 ng/mL. Moreover, the “calculated concentration in rat plasma” value was 513 ng/mL and 639 ng/mL and 761 ng/mL and 625 ng/mL and 671 ng/mL and 616 ng/mL under setting [7]; 789 ng/mL and 675 ng/mL and 859 ng/mL and 1010 ng/mL and 887 ng/mL and 701 ng/mL under setting [8]; 619 ng/mL and 737 ng/mL and 807 ng/mL and 812 ng/mL and 881 ng/mL and 772 ng/mL under setting [9]; 216 ng/mL and 376 ng/mL and 234 ng/mL and 486 ng/mL and 477 ng/mL and 484 ng/mL under setting [10]; 6.57 ng/mL and 22.4 ng/mL and 13.6 ng/mL and 55.0 ng/mL and 27.3 ng/mL and 31.2 ng/mL under setting [11]; 3.25 ng/mL and 2.30 ng/mL and BLQ (3×) and 17.3 ng/mL (Compound 2 50 mg/kg PO QD×10, 72 h post tenth dose, 50 mg/kg). Further, the “calculated concentration in rat plasma” value (Compound 2 50 mg/kg PO QD×10, 96 h post tenth dose, 50 mg/kg) is “BLQ (5×) and 1.27 ng/mL”. Moreover, the “% of Parent” value runs as follows: under setting [14], 17.6%; under setting [16], 18.1%. The AUC0-24 by setting is: under setting [15], 13840 ng·h/mL; under setting [29], 13,840 ng·h/mL. For the same compound, the AUC0-last under setting [17] worked out at 19943 ng·h/mL and the AUC0-last under setting [30] is listed as 19,943 ng·h/mL. Under setting [29], the “percent of the parent Compound 2 AUC0-24” value was 17.6%. The “Average Concentration” value was determined as 461.83 ng/mL under setting [18]; 682.50 ng/mL under setting [19]; 845.83 ng/mL under setting [20]; 817.33 ng/mL under setting [21]; 205.50 ng/mL under setting [22]; 596.00 ng/mL under setting [23]. The “Average Concentration” value was determined as 637.50 ng/mL under setting [24]; 820.17 ng/mL under setting [25]; 771.33 ng/mL under setting [26]; 378.83 ng/mL under setting [27]; 26.01 ng/mL under setting [28]; 7.62 ng/mL under setting [12]. Also, under setting [13], the “Average Concentration” value is 1.27 ng/mL. Further, under setting [30], the “percent of parent AUC0-last” value was 18.1%.
As to `CCn1c(C#CCNc2ccc(F)cc2)cc2cc(CNC3CCOCC3)ccc21` [Compound 6, 3-{1-Ethyl-5-[(tetrahydro-2H-pyran-4-ylmino)methyl]-1H-indol-2-yl}-1-(p-fluorophenylamino)-2-propyne], where the note is “rat, in vivo, po, 50 mg/kg”, the AUC0-24 is 377 ng·h/mL and the AUC0-last is 389 ng·h/mL.

Source of the values: patent US20230049952A1, “METHODS AND COMPOUNDS FOR RESTORING MUTANT P53 FUNCTION” (PMV Pharmaceuticals, Inc., priority 2020, published 2023).
